Assay results reported in patent US10351566B2, “Therapeutic compounds for pain and synthesis thereof” (priority 2015, dated 2019).
Marks after values point to notes of the source that are not given here.

What was measured:
[1] = tested on: CCI-induced neuropathic pain; test: CCI model in mice, IP route; assay type: in vivo; conditions: CCl model
Excerpt: IP route of administration was used for initial proof of principle studies with Formula 1. However, the chosen route of administration in most of the studies conducted with Formula 1 was either SC or PO. A brief protocol outline is provided in each section, for the purpose of understanding the results without elaborating on all the detailed procedures.
Table 7 summarizes the activity of Formula 1 in mice models of neuropathic pain following repeated daily administration using different routes of administration. […] Treatment with Formula 1 show activity without CNS effect.

[2] = assay type: in vitro ADME, mouse, rat, human
Experimental: Metabolic stability studies in mouse, rat and human liver microsomes were performed at a compound concentration of 1 μM.
A total of five metabolites were detected in all three species. […] Due to the similarity in the plasma stability of the compound in the mouse and the human plasma, and toxicology studies would preferably be performed in the mouse.

[3] = assay type: in vivo; conditions: mice, 10 mg/kg IP
Experimental: Mice received a 10 mg/kg IP dose of Formula 1. The animals were placed in the open field apparatus after 30 minutes (box of 0.5×0.5×0.5 m length, width and height) for a period of 5 min. The animals' walking distance and speed were evaluated and compared to the vehicle-treated group.

[4] = tested on: Taxol-induced neuropathic pain; test: Taxol-induced neuropathic pain in mice, SC administration; assay type: in vivo
Experimental: Study outline in brief: Animals were dosed daily with Taxol for a period of 8 consecutive days (Day 0 to Day 7). On study day 8, prior to drug dosing, the decrease in withdrawal force (tactile allodynia) was verified by applying the von Frey test. After assigning the animals to their treatment groups, the animals were treated daily for a period of 5 days with either vehicle or Formula 1 at different doses. Gabapentin at a dose of 150 mg/kg was dosed only on days of testing (day 8 and day 14).
Response to heat stimuli was assessed using the hotplate apparatus set at 50ΥC. […] At baseline prior to Taxol dosing, the animals' response time to heat was 28.10±1.60 sec (vehicle-treated group). […] However, it is interesting to note that the beneficial activity of Formula 1 on heat hyperalgesia was more noticeable on study day 14, following repeated daily dosing of the compound, than on study day 8 following a single dose (Table 6).

[5] = tested on: Taxol-induced neuropathic pain; test: Taxol-induced neuropathic pain in the rat, per oral; assay type: in vivo; conditions: Taxol rats
Experimental: Study outline in brief: Taxol was administered daily for a period of 17 days (day 0 to day 16). On day 16, the withdrawal force was evaluated using the von Fey test. The animals experienced a reduction of more than 60% in the withdrawal force following repeated Taxol dosing. After a single treatment with Formula 1 at a dose of 50 mg/kg, a full reversal was recorded, i.e. the withdrawal force was similar to the values recorded prior to Taxol dosing commencement. The duration of the analgesic activity was at least 6 h.

[6] = 30 minutes after dosing, 5 min in open field

CC(C)(C)C(=O)O[C@@H]1[C@@H]2[C@H]3C[C@H](C[C@@H]1N3Cc1ccccn1)CN2C(=O)CC(F)(F)F (relative stereo) [Formula 1, (2S*,3S*,3aS*,6R*,7aR*)-1-(pyridin-2-ylmethyl)-4-(3,3,3-trifluoropropanoyl)octahydro-1H-2,6-methanopyrrolo[3,2-b]pyridin-3-yl pivalate]
Dose of maximum activity [1]: 30 mg/kg | Duration of activity at maximum effect [1]: >4 H | Peak of activity (T) [1]: 2 H | Level of activity (% of maximum effect-baseline) ([1]; repeated daily administration): 33% | unique human metabolites [2]: No unique human metabolites were detected | total metabolites detected ([2]; in all three species): five | major metabolic pathways ([2]; mouse, rat and human liver microsomes): N-dealkylation and oxidation | walking distance and speed vs. vehicle-treated group [3]: No difference was found | Distance [3, 6]: 1.94 ± 0.89 m | Time spent in the center of the field [3, 6]: 34.82 ± 23.53 s | response time to heat (50° C.), Mean ([4]; SC 1 mg/kg, Day 0 Pre-Taxol): 28.8 s | response time to heat (50° C.), Mean ([4]; SC 1 mg/kg, Day 8, 1 h): 11.9 s | response time to heat (50° C.), Mean ([4]; SC 1 mg/kg, Day 8, 2 h): 22.8* sec | response time to heat (50° C.), Mean ([4]; SC 1 mg/kg, Day 8, 4 h): 18.9* sec | response time to heat (50° C.), Mean ([4]; SC 1 mg/kg, Day 8, 6 h): 18.5* sec | response time to heat (50° C.), Mean ([4]; SC 1 mg/kg, Day 8 Pre-dosing): 11.4 s | response time to heat (50° C.), Mean ([4]; SC 1 mg/kg, Day 14, 1 h): 14.9* sec | response time to heat (50° C.), Mean ([4]; SC 1 mg/kg, Day 14, 2 h): 24.6* sec | response time to heat (50° C.), Mean ([4]; SC 1 mg/kg, Day 14, 4 h): 24.2* sec | response time to heat (50° C.), Mean ([4]; SC 1 mg/kg, Day 14, 6 h): 22.0* sec | response time to heat (50° C.), Mean ([4]; SC 1 mg/kg, Day 14 Pre-dosing): 15.8* sec | response time to heat (50° C.), Mean ([4]; SC 1 mg/kg, Day 17, No dosing): 12.4 s | response time to heat (50° C.), Mean ([4]; SC 3 mg/kg, Day 0 Pre-Taxol): 28.6 s | response time to heat (50° C.), Mean ([4]; SC 3 mg/kg, Day 8, 1 h): 15.7 s | response time to heat (50° C.), Mean ([4]; SC 3 mg/kg, Day 8, 2 h): 19.4 s | response time to heat (50° C.), Mean ([4]; SC 3 mg/kg, Day 8, 4 h): 14.8 s | response time to heat (50° C.), Mean ([4]; SC 3 mg/kg, Day 8, 6 h): 14.1 s | response time to heat (50° C.), Mean ([4]; SC 3 mg/kg, Day 8 Pre-dosing): 12.2 s | response time to heat (50° C.), Mean ([4]; SC 3 mg/kg, Day 14, 1 h): 18.4* sec | response time to heat (50° C.), Mean ([4]; SC 3 mg/kg, Day 14, 2 h): 24.8* sec | response time to heat (50° C.), Mean ([4]; SC 3 mg/kg, Day 14, 4 h): 23.6* sec | response time to heat (50° C.), Mean ([4]; SC 3 mg/kg, Day 14, 6 h): 20.6* sec | response time to heat (50° C.), Mean ([4]; SC 3 mg/kg, Day 14 Pre-dosing): 19.7 s | response time to heat (50° C.), Mean ([4]; SC 3 mg/kg, Day 17, No dosing): 12.2 s | response time to heat (50° C.), Mean ([4]; SC 10 mg/kg, Day 0 Pre-Taxol): 28.5 s | response time to heat (50° C.), Mean ([4]; SC 10 mg/kg, Day 8, 1 h): 15.7 s | response time to heat (50° C.), Mean ([4]; SC 10 mg/kg, Day 8, 2 h): 17.8* sec | response time to heat (50° C.), Mean ([4]; SC 10 mg/kg, Day 8, 4 h): 15.8 s | response time to heat (50° C.), Mean ([4]; SC 10 mg/kg, Day 8, 6 h): 14.3 s | response time to heat (50° C.), Mean ([4]; SC 10 mg/kg, Day 8 Pre-dosing): 11.2 s | response time to heat (50° C.), Mean ([4]; SC 10 mg/kg, Day 14, 1 h): 18.5* sec | response time to heat (50° C.), Mean ([4]; SC 10 mg/kg, Day 14, 2 h): 18.7* sec | response time to heat (50° C.), Mean ([4]; SC 10 mg/kg, Day 14, 4 h): 19.3* sec | response time to heat (50° C.), Mean ([4]; SC 10 mg/kg, Day 14, 6 h): 15.5* sec | response time to heat (50° C.), Mean ([4]; SC 10 mg/kg, Day 14 Pre-dosing): 14.5 s | response time to heat (50° C.), Mean ([4]; SC 10 mg/kg, Day 17, No dosing): 10.4 s | response time to heat (hotplate 50° C.) ([4]; Taxol mice, SC, 10 mg/kg, 3 mg/kg and 1 mg/kg): active in increasing the response time | analgesic activity (withdrawal force, von Frey) ([4]; Taxol mice, SC, dose as low as 1 mg/kg): profound analgesic activity | Dose of maximum activity ([4]; Taxol model, SC, mice): 1 mg/kg | Duration of activity at maximum effect ([4]; Taxol model, SC, mice): 3 days | Level of activity (% of maximum effect-baseline) ([4]; Taxol model, SC, mice): 100% | body weight loss following Taxol dosing [5]: the rate of weight loss was reduced | duration of the analgesic activity ([5]; oral 50 mg/kg): at least 6 h | withdrawal force vs. vehicle 24 h post-dosing ([5]; oral 50 mg/kg): no significant difference | withdrawal force (von Frey) ([5]; single oral treatment 50 mg/kg): full reversal
